Where two headings read alike, the source gives them in different places.
What was measured:
[1] = system: cyanide poisoning; set-up: species or system mice; details: mouse, in vivo
[2] = system: righting reflex; details: mouse, in vivo, ip

## CCOC(=O)C1(O)CSC(O)(C(=O)OCC)CS1 (stereo not shown) [PD 2, 2,5-Dihydroxy-2,5-dicarbethoxy-1,4-dithiane]
[1]
  % S (percent survivors): 100%
  P.I. (protective index: recovery time CN-treated / recovery time PD-treated): 7.6
[1]; ip
  Protective Indices compared with the combination of nitrite and thiosulfate: generally superior
[1]; po
  % S (percent survivors): 100%
  antidotal activity when administered by the oral route: retain their antidotal activity
[2]
  Screen Righting time (Ave ± SE): 21.2 ± 1.2 s

## O.O.O.O.O=C(O)C1(O)CSC(O)(C(=O)O)CS1.[Na].[Na] (stereo not shown) [13 (X = Na), Disodium 2,5-dihydroxy-1,4-dithiane-2,5-dicarboxylic acid tetrahydrate]
[1]
  % S (percent survivors): 100%
  P.I. (protective index): 4.0
  Screen Righting time (Ave ± SE): 17.0 ± 3.3 min
[1]; po
  % S (percent survivors): 100%
[2]
  Screen Righting time (Ave ± SE): 14.0 ± 2.3 s

## C/C1=C2/[N-][C@H]([C@H](CC(N)=O)[C@@]2(C)CCC(=O)NC[C@@H](C)OP(=O)([O-])O[C@H]2[C@@H](O)[C@@H](n3cnc4cc(C)c(C)cc43)O[C@@H]2CO)[C@]2(C)N=C(/C(C)=C3N=C(/C=C4N=C1[C@@H](CCC(N)=O)C\4(C)C)[C@@H](CCC(N)=O)[C@]\3(C)CC(N)=O)[C@@H](CCC(N)=O)[C@]2(C)CC(N)=O.[Co+3].[OH-] [H, Hydroxocobalamin, reference compound]
[1]
  % S (percent survivors): 100%
  P.I. (protective index: recovery time CN-treated / recovery time PD-treated): 5.2
[2]
  Screen Righting time (Ave ± SE): 7.1 ± 0.6 s

## N[C@@H](CCC(=O)N[C@@H](CSSC[C@H](N)C(=O)O)C(=O)NCC(=O)O)C(=O)O [CySSG, reference compound]
[1]
  % S (percent survivors): 100%
  P.I. (protective index): 2.5
  Screen Righting time (Ave ± SE): 27.7 ± 2.7 min
[1]; po
  % S (percent survivors): 100%
[2]
  Screen Righting time (Ave ± SE): 8.8 ± 2.2 s

— patent US20120329731A1 (priority 2006, published 2012)
